Results from patent US4532240A, “Diaminopyrimidines” (Warner-Lambert Company, priority 1983, dated 1985).
Where “and” joins values, the source holds several entries; their conditions need not be identical. Identical values can stand only once. Counter-ions that a name gives are not always drawn. Each block holds one compound with its values, some of them ahead of it.

Experiments:
[1] = system: P388 Leukemia; experiment: In vivo lymphocytic leukemia P388 test in mice; parameters: species or system CD2 F1 mice; details: intraperitoneal, two single doses four days apart
Description: The in vivo lymphocytic leukemia P388 test is carried out using the test system of the United States National Cancer Institute. The animals used are either male or female CD2 F1 mice. There are six to seven animals per test group. The tumor transplant is by intraperitoneal injection of dilute ascitic fluid containing cells of lymphocytic leukemia P388. The test compounds are administered intraperitoneally in two single doses with a four-day interval between doses at various dose levels following tumor inoculation. The animals are weighed and survivors are recorded on a regular basis for 30 days. A ratio of survival time for treated (T)/control (C) animals is calculated. The criterion for efficacy is T/C×100>125%. The positive control compound in this test is 5-fluorouracil. See Cancer Chemotherapy Reports, Part 3, 3, 1 (1972) for a comprehensive discussion of the protocol.

[2] = system: HCT-8 (human colon adenocarcinoma) cells; experiment: In vitro activity against HCT-8 human colon adenocarcinoma cells; format: cell-based; details: HCT-8, 60-65 hours with compound, 37° C., read-out: ID50 against human colon adenocarcinoma
Description: HCT-8 (human colon adenocarcinoma) cells are trypsinized using Trypsin-EDTA. A single cell suspension is achieved by passing the cells through a 26 gauge needle with a 20 cc syringe. A cell suspension is prepared using RPMI 1640+10% FCS+50 μg/ml garamycin with a cell concentration of approximately 30,000 cells/ml. The cell suspension is dispensed in Linbro 24-well plates; 1 ml/well. The plates are incubated for approximately 48 hours at 37° C. in a 5% CO2 atmosphere. At this time test compounds are added in the appropriate concentration. Five μl of the 200 μg/ml stock solution is added to each well in a primary test. Ten μl of the appropriate dilution is added to each well for a titration test. The plates are reincubated an additional 60-65 hours at 37° C. in a 5% CO2 atmosphere. The test is read by lysing the cells using a mix of cationic surfactant, glacial acetic acid and sodium chloride. […] of the lysed cell suspension from each well is added to 8 ml of diluent. Each sample is read on the Coulter counter (ZBI model). The activity of each sample is measured as a percentage of the controls and the data is reported as ID50, that is the molar quantity of drug required to kill 50% of the tumor cells.

[3] = system: L1210 cells; experiment: In vitro antitumor screening on L1210 murine leukemia cell line (growth, Coulter counter); format: cell-based; details: Mus musculus, L1210, 72 h; three days, 37° C., 5% CO2; read-out: L1210 Leukemia in vitro ID50
Description: L1210 cells, a murine leukemia cell line, were grown in RPMI 1640 supplemented with 5% fetal bovine serum and gentamicin (50 μg/ml).
Drug dilutions were prepared in the appropriate solvent and 20 μl of each dilution were added to 24-well Linbro tissue culture plates, followed by the addition of M 2.0 ml of cell suspension containing 3×10^4cells per ml. Solvent and medium controls were included in each test. After incubation at 37° C. for three days in 5% CO2, the contents of each well were removed and the cells counted in a ZBI Coulter counter. Percent growth was calculated relative to the controls and the levels of drug activity were expressed as ID50 in moles per liter using probit paper.

[4] = system: B. catarrhalis; experiment: Antibacterial disk zone of inhibition, B. catarrhalis; format: cell-based, Branhamella catarrhalis 03596; details: Moraxella catarrhalis; 0.01 mg/ml; read-out: Inhibition Zone diameter
Description: (§1) Vegetative bacterial isolates are maintained on agar slants or in liquid media, hereby designated as inoculum media. The cultures are transferred at regular intervals in such media. (See Table IV for the corresponding inoculum media of each culture.) The organisms are generally transferred either onto agar slants or into liquid inoculum media and incubated at 37° C. (at 28° C. with Xanthomonas sp.) overnight (18-20 hours).
(§2) The microbial cells from the overnight agar slants are then scraped off and suspended in saline solution (0.85% NaCl). The microbial concentrations are adjusted to a light transmission of 8.6% using a PerkinElmer Model 35 spectrophotometer (550 nm). For the organisms that are maintained in liquid media, one of two procedures is followed: (1) the culture suspension is first centrifuged at 5000 rpm for five minutes. The pellet is resuspended in 0.85% saline to 8.6% light transmittancy; (2) an aliquot of the culture suspension is to be added directly to the assay medium.
(§3) A given molten-agar assay medium, maintained in a flask at approximately 45° C., is inoculated with 0.16-10 ml of an appropriate cell or spore suspension per 100 ml of medium. Fifty ml of the inoculated medium is poured into a Bio-Assay dish (A/S Nunc; Gibco Laboratories Catalog Number 240835) and spread evenly across the bottom, then allowed to solidify at room temperature. Each agar dish is inverted and refrigerated until used.
(§4) The compounds or samples to be tested are dissolved in suitable solvents, e.g., alcohols, dimethylsulfoxide, or N,N-dimethylformamide. The samples are generally dissolved so that the final concentration of the solvent is <10%.* The compounds are tested at different concentrations: 3,000; 1,000; 500; 100; and 10 mcg/ml. Paper discs (12.7 mm diameter) saturated with a given concentration of test compound are placed onto the seeded agar dishes with a pair of forceps.
(§5) The disked agar dishes are incubated at 37° C. (28° C. for Xanthamonas sp.) for 18-20 hours. Active compounds show a zone of inhibition around the disc. The diameter of the zone is measured in mm. The zone diameter of active compounds ranges from a minimum of 13.5 mm to as high as 60 mm. The size of the zone diameter generally reflects the activity of the compound: the larger the zone the greater the activity.

[5] = system: B. subtilis; experiment: Antibacterial disk zone of inhibition, B. subtilis; format: cell-based, Bacillus subtilis 04555; details: Bacillus subtilis, read-out: Inhibition Zone diameter; for zone of inhibition at 100 µg/mL: 0.1 mg/ml
Description: as §1, §2
Isolate spore suspensions (Bacillus sp.) are maintained at 4° C. These suspensions serve as the inoculum media for assays.
as §3, §4, §5

[6] = system: M. faecalis; experiment: Antibacterial disk zone of inhibition, M. faecalis (as headed); format: cell-based, Streptococcus faecalis 05045; details: Enterococcus faecalis, read-out: Inhibition Zone diameter
Description: as §1, §2, §3, §4, §5

[7] = system: S. lutea; experiment: Antibacterial disk zone of inhibition, S. lutea (as headed); format: cell-based, Micrococcus luteus 05064; details: Micrococcus luteus, read-out: Inhibition Zone diameter
Description: as §1, §2, §3, §4, §5

[8] = system: X. phaseoli; experiment: Antibacterial disk zone of inhibition, X. phaseoli; format: cell-based, Xanthomonas phascoli 06002; details: Xanthomonas; 3.0 mg/ml; read-out: Inhibition Zone diameter
Description: as §1, §2, §3, §4, §5

Compound: Cc1nc(N)nc(N)c1N1CCN(c2ccc(C(=O)O)cc2)CC1.Cl [Example 1, 4-[4-(2,4-Diamino-6-methyl-5-pyrimidinyl)-1-piperazinyl]benzoic acid hydrochloride]
- T/C × 100 ([1]; 6.25 mg/kg, listed as CH3, H, H, 4-CO2 H, hydrochloride): 141% and 146%
- T/C × 100 ([1]; 12.5 mg/kg, listed as CH3, H, H, 4-CO2 H, hydrochloride): 179% and 227%
- T/C × 100 ([1]; 25 mg/kg): 137%
- T/C × 100 ([1]; 50 mg/kg): 258%
- survival rate after 30 days ([1]; 50 mg/kg): 3/6

Compound: Cc1nc(N)nc(N)c1N1CCN(c2ccc(C(=O)N[C@@H](CCC(=O)O)C(=O)O)cc2)CC1 [Example 3, N-[4-[4-(2,4-diamino-6-methyl-5-pyrimidinyl)-1-piperazinyl]benzoyl]-L-glutamic acid]
- T/C × 100 ([1]; 6.25 mg/kg, listed as CH3, H, H, 4-CONHCH(CO2 H)CH2 CH2 CO2 H): 144% and 137%
- T/C × 100 ([1]; 12.5 mg/kg, listed as CH3, H, H, 4-CONHCH(CO2 H)CH2 CH2 CO2 H): 155% and 168%
- T/C × 100 ([1]; 25 mg/kg, listed as CH3, H, H, 4-CONHCH(CO2 H)CH2 CH2 CO2 H): 172% and 167%
- T/C × 100 ([1]; 50 mg/kg): 222%
- T/C × 100 ([1]; 50 mg/kg, listed as CH3, H, H, 4-CONHCH(CO2 H)CH2 CH2 CO2 H): 188%

- IC50 [2]: > 1000 nM
Compound: Cc1nc(N)nc(N)c1N1CCN(c2ccc([N+](=O)[O-])cc2)CC1 [Example 4, 6-Methyl-5-[4-(4-nitrophenyl)-1-piperazinyl]-2,4-pyrimidinediamine, hydrate (10:1)]
- IC50 [3]: 15 nM

- IC50 [2]: 49 nM
Compound: CCOC(=O)c1ccc(N2CCN(c3c(C)nc(N)nc3N)CC2)cc1 [Example 6, 4-[4-(2,4-Diamino-6-methyl-5-pyrimidinyl)-1-piperazinyl]benzoic acid, ethyl ester]
- IC50 [3]: 5 nM

- IC50 [2]: 67 nM
Compound: CNC(=O)c1ccc(N2CCN(c3c(C)nc(N)nc3N)CC2)cc1 [Example 7, 4-[4-(2,4-Diamino-6-methyl-5-pyrimidinyl)-1-piperazinyl]-N-methyl benzamide, hydrate (100:45)]
- IC50 [3]: 2.5 nM

- IC50 [2]: 800 nM
Compound: COC(=O)CNC(=O)c1ccc(N2CCN(c3c(C)nc(N)nc3N)CC2)cc1 [Example 8, N-[4-[4-(2,4-Diamino-6-methyl-5-pyrimidinyl)-1-piperazinyl]benzoyl]glycine,methyl ester]
- IC50 [3]: 17 nM

- IC50 [2]: 89 nM
Compound: CCc1nc(N)nc(N)c1N1CCN(c2ccc(C#N)cc2)CC1 [Example 10, 5-[4-(4-cyanophenyl)-1-piperazinyl]-6-ethyl-2,4-pyrimidinediamine]
- T/C × 100 ([1]; 50 mg/kg): 126%
- IC50 [3]: 7.7 nM

- IC50 [2]: 120 nM
Compound: CCCc1nc(N)nc(N)c1N1CCN(c2ccc(C#N)cc2)CC1 [Example 14, 5-[4-(4-cyanophenyl)-1-piperazinyl]-6-propyl-2,4-pyrimidinediamine]
- IC50 [3]: 8.9 nM

Compound: Cc1nc(N)nc(N)c1N1CCN(c2ccccc2)CC1 [Example 20, 6-Methyl-5-(4-phenyl-1-piperazinyl)-2,4-pyrimidinediamine, hydrochloride (5:1)]
- IC50 [3]: 150 nM

- IC50 [2]: 350 nM
Compound: Cc1nc(N)nc(N)c1N1CCN(c2ccc(Cl)cc2)CC1 [Example 21, 5-[4-(4-chlorophenyl)-1-piperazinyl]-6-methyl-2,4-pyrimidinediamine]
- IC50 [3]: 28 nM

Compound: Cc1nc(N)nc(N)c1N1CCN(c2ccc(N)cc2)CC1 [Example 22]
- IC50 [3]: 80 nM

Compound: CCOC(=O)CCC(NC(=O)c1ccc(N2CCN(c3c(N)nc(N)nc3CC)CC2)cc1)C(=O)OCC (stereo not drawn) [drawing 10]
- IC50 [3]: 3.2 nM

Compound: CCc1nc(N)nc(N)c1N1CCN(c2ccc(C(=O)NC(CCC(=O)O)C(=O)O)cc2)CC1 (stereo not drawn) [drawing 11]
- IC50 [3]: 2000 nM

Compound: CCCc1nc(N)nc(N)c1N1CCN(c2ccc(C(=O)NC(CCC(=O)O)C(=O)O)cc2)CC1 (stereo not drawn) [drawing 13]
- IC50 [3]: 7.5 nM

Compound: CCOC(=O)CCC(NC(=O)c1ccc(N2CCN(c3c(N)nc(N)nc3CC)CC2)cc1)C(=O)OCC (stereo not drawn) [drawing 15]
- IC50 [2]: 26 nM

Compound: CCc1nc(N)nc(N)c1N1CCN(c2ccc(C(=O)NC(CCC(=O)O)C(=O)O)cc2)CC1 (stereo not drawn) [drawing 16]
- IC50 [2]: 120 nM

Compound: CCCc1nc(N)nc(N)c1N1CCN(c2ccc(C(=O)NC(CCC(=O)O)C(=O)O)cc2)CC1 (stereo not drawn) [drawing 17]
- IC50 [2]: 85 nM

Compound: CCOC(=O)CCC(NC(=O)c1ccc(N2CCN(c3c(N)nc(N)nc3CC)CC2)cc1)C(=O)OCC (stereo not drawn) [drawing 19]
- T/C × 100 ([1]; 6.25 mg/kg): 163%
- T/C × 100 ([1]; 12.5 mg/kg): 183%
- T/C × 100 ([1]; 25 mg/kg): 241%
- survival rate after 30 days ([1]; 25 mg/kg): 2/6
- T/C × 100 ([1]; 50 mg/kg): 258%
- survival rate after 30 days ([1]; 50 mg/kg): 5/6

Compound: Cc1nc(N)nc(N)c1N1CCN(c2ccc(C(=O)N[C@@H](CCC(=O)O)C(=O)O)cc2)CC1 [drawing 21]
- zone of inhibition at 10 µg/mL [4]: 25 mm
- zone of inhibition at 10 µg/mL ([5]; 0.01 mg/ml): 22 mm
- zone of inhibition at 3000 µg/mL ([6]; 3.0 mg/ml): 0 mm
- zone of inhibition at 3000 µg/mL ([7]; 3.0 mg/ml): 0 mm
- zone of inhibition at 3000 µg/mL [8]: 0 mm

Compound: CCOC(=O)CCC(NC(=O)c1ccc(N2CCN(c3c(N)nc(N)nc3CC)CC2)cc1)C(=O)OCC (stereo not drawn) [drawing 22]
- zone of inhibition at 10 µg/mL [4]: 20 mm
- zone of inhibition at 100 µg/mL [5]: 19 mm
- zone of inhibition at 10 µg/mL ([6]; 0.01 mg/ml): 15 mm
- zone of inhibition at 10 µg/mL ([7]; 0.01 mg/ml): 19 mm
- zone of inhibition at 3000 µg/mL [8]: 3 mm

Compound: CCc1nc(N)nc(N)c1N1CCN(c2ccc(C(=O)NC(CCC(=O)O)C(=O)O)cc2)CC1 (stereo not drawn) [drawing 23]
- zone of inhibition at 10 µg/mL [4]: 14 mm
- zone of inhibition at 100 µg/mL [5]: 20 mm
- zone of inhibition at 100 µg/mL ([6]; 0.1 mg/ml): 14 mm
- zone of inhibition at 500 µg/mL ([7]; 0.5 mg/ml): 14 mm
- zone of inhibition at 3000 µg/mL [8]: 15 mm
